Like-named read-outs stand apart in the source and are kept apart here.
Assay: In vivo pharmacokinetics test in mice
Details: female Balb/c mice; for AUC(0-inf): read-out: Curve area (0-inf) AUC0-inf; for AUC(0-t): read-out: Curve area (0-t) AUC0-last; for half-life: read-out: Half life T1/2 (converted)
Experimental: In Vivo Pharmacokinetics Test of Compound 32 in Mice
Female Balb/c mice were used as test animals. The compound 32 was administrated intravenously and intragastrically to mice, then the drug concentrations in the plasma at different time points were determined by the LC/MS/MS method. The in vivo pharmacokinetic behavior of compound 32 in mice was studied, and its pharmacokinetic characteristics were evaluated.
1.1 Experiment drug: Compound 32
1.2 Experiment animals: Sixteen healthy adult female Balb/c mice were divided into four groups according to the principle of similar body weight, with four mice in each group. The animals were purchased from Shanghai Lingchang BioTech Co., Ltd. of Shanghai SLAC Laboratory Animal Co., Ltd., and the animal production license number was SCXK (Shanghai) 2013-0018.
An appropriate amount of the sample was taken, 5% final volume of DMSO was added, and then 95% final volume of 20% HP-β-CD was added. The mixture was ultrasonically stirred to obtain a 0.5 mg/mL clear solution. After filtration, it was used for the intravenous administration.
An appropriate amount of the sample was taken, and dissolved in a 0.5% sodium carboxymethyl cellulose solution. The mixture was ultrasonically stirred to obtain a 0.5 mg/mL homogeneous suspension, which was used for the intragastric administration.
Eight female Balb/c mice were divided into two groups. After fasting overnight, the first group was administered intravenously with the administration volume of 2.5 mL/kg and the dosage of 1 mg/kg. […]
After the female Balb/c mice were intravenously administrated, 30 μL of blood was taken from different mice at each time point of 0.0833, 0.25, 0.5, 1, 2, 4, 8 and 24 hours, and placed in test tubes containing 2 μL of EDTA-K2; and after the female Balb/c mice were intragastrically administrated, 30 μL of blood was taken at an alternative location at each time point of 0.25, 0.5, 1, 2, 4, 8 and 24 hours, and placed in test tubes containing 2 μL of EDTA-K2. The tube was centrifuged at 3000 g for 15 minutes to separate the plasma, and the separated plasma was stored at −60° C. Animals could take food 2 hours after the administration.
The LC/MS/MS method was used to measure the content of the compound to be tested in the plasma after the intravenous and intragastric administration to the mice. The linear range of the method was 2.00-6000 nmol/L; the plasma samples were analyzed after the protein precipitation by acetonitrile treatment.

[1] = mouse, plasma, po, Intragastric, 3 mg/kg (table; text says 2 mg/kg)
[2] = mouse, plasma, Intravenous, 1 mg/kg

## Cc1sc2c(c1C)C(c1ccc(Cl)cc1)=N[C@@H](CC(=O)Nc1ccc3c(c1)COC3=O)c1nnc(C)n1-2 [Compound 32]
  absorption (in words): good absorption
  pharmacokinetic clearance (in words): low pharmacokinetic clearance
[1]
  AUC(0-inf): 2.82 µM·h
  AUC(0-t): 2.74 µM·h
  half-life: 1.47 h
mouse, plasma, po, Intragastric, 3 mg/kg (table; text says 2 mg/kg), read-out: Time to peak Tmax
  Tmax: 1 h
mouse, plasma, Intravenous, 1 mg/kg, read-out: Apparent distribution volume Vdss
  Vd: 1.19 L/kg
mouse, plasma, Intravenous, 1 mg/kg, read-out: Clearance rate Cl
  clearance: 12.5 mL/min/kg
[2]
  AUC(0-inf): 2.5 µM·h
  AUC(0-t): 2.49 µM·h
  half-life: 1.09 h
mouse, po, Intragastric, 3 mg/kg (table; text says 2 mg/kg), plasma, read-out: Drug concentration in blood Cmax
  Cmax: 930 nM

From US11312726B2, “Thienodiazepine derivatives and application thereof” (priority 2017, dated 2022)
